Reference: PubChem BioAssay AID330 (DTP/NCI, 2004)
Several values for one entry are separate records, joined by “and”; a condition that tells them apart may be missing. Equal values may be shown once. Inconclusive results and toxic doses are left out. How the source made its calls: active means survival T/C of 150% or more; inactive means T/C below 125% in these data.

System: P388 leukemia ip, CD2F1 mice, survival T/C
Assay: NCI In Vivo Anticancer Drug Screen. Data for tumor model P388 Leukemia (intraperitoneal) in CD2F1 (CDF1) mice
Conditions: endpoint: median survival time, higher = longer survival
Outline: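 Mice carrying the transplanted tumor received test compound or vehicle. Survival was recorded in each group, and the value is the treated-group measurement divided by that of the vehicle-treated control group.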

[1] = dose: 50.0 mg/kg/injection, schedule: Q01DX009 (ip), vehicle: Klucel (hydroxypropylcellulose) (HPC)
[2] = dose: 50.0 mg/kg/injection, schedule: Q01DX009 (ip), vehicle: saline
[3] = dose: 100.0 mg/kg/injection, schedule: Q01DX009 (ip), vehicle: saline
[4] = dose: 200.0 mg/kg/injection, schedule: Q01DX009 (ip), vehicle: saline
[5] = dose: 100.0 mg/kg/injection, schedule: Q04DX003 (ip), vehicle: saline
[6] = dose: 200.0 mg/kg/injection, schedule: Q04DX003 (ip), vehicle: saline
[7] = dose: 400.0 mg/kg/injection, schedule: Q04DX003 (ip), vehicle: saline
[8] = dose: 50.0 mg/kg/injection, schedule: Q01DX005 (ip), vehicle: Klucel (hydroxypropylcellulose) (HPC)
[9] = dose: 100.0 mg/kg/injection, schedule: Q01DX005 (ip), vehicle: Klucel (hydroxypropylcellulose) (HPC)
[10] = dose: 200.0 mg/kg/injection, schedule: Q01DX005 (ip), vehicle: Klucel (hydroxypropylcellulose) (HPC)
[11] = dose: 50.0 mg/kg/injection, schedule: Q01DX009 (ip), vehicle: saline with Tween-80
[12] = dose: 100.0 mg/kg/injection, schedule: Q01DX009 (ip), vehicle: saline with Tween-80
[13] = dose: 200.0 mg/kg/injection, schedule: Q01DX009 (ip), vehicle: saline with Tween-80
[14] = dose: 100.0 mg/kg/injection, schedule: Q01DX009 (ip), vehicle: Klucel (hydroxypropylcellulose) (HPC)
[15] = dose: 200.0 mg/kg/injection, schedule: Q01DX009 (ip), vehicle: Klucel (hydroxypropylcellulose) (HPC)

Measured: T/C

CCCCCN(CCCCC)c1ccc(/C=C/c2ccnc3ccccc23)cc1
inactive: [1] 98 % of control | dose: 400.0 mg/kg/injection, schedule: Q01DX009 (ip), vehicle: Klucel (hydroxypropylcellulose) (HPC) 104 % of control

Cc1cc(=O)[nH]c(/N=C(/N)N(C)C)n1
inactive: [2] 101 % of control | [3] 98 % of control | [4] 108 % of control

CCCS(=O)(=O)/C=C/C(=O)c1ccc2ccccc2c1
inactive: [5] 105 % of control | [6] 108 % of control | [7] 106 % of control

CCOc1cc2c3c(c(C)cc2cn1)CCC3=O
inactive: dose: 6.25 mg/kg/injection, schedule: Q01DX009 (ip), vehicle: distilled water + Tween-80 96 % of control | dose: 12.5 mg/kg/injection, schedule: Q01DX009 (ip), vehicle: distilled water + Tween-80 100 % of control | dose: 25.0 mg/kg/injection, schedule: Q01DX009 (ip), vehicle: distilled water + Tween-80 114 % of control | dose: 50.0 mg/kg/injection, schedule: Q01DX009 (ip), vehicle: distilled water + Tween-80 98 % of control and 96 % of control | dose: 100.0 mg/kg/injection, schedule: Q01DX009 (ip), vehicle: distilled water + Tween-80 115 % of control and 87 % of control | dose: 200.0 mg/kg/injection, schedule: Q01DX009 (ip), vehicle: distilled water + Tween-80 118 % of control

NC(c1ccccc1)c1cccs1 (stereo not drawn)
inactive: [8] 100 % of control | [9] 105 % of control

O=C1C2=C(Nc3cc([N+](=O)[O-])ccc3N2)OC1c1ccccc1Cl (stereo not drawn)
inactive: dose: 60.0 mg/kg/injection, schedule: Q01DX005 (ip), vehicle: Klucel (hydroxypropylcellulose) (HPC) 102 % of control | dose: 120.0 mg/kg/injection, schedule: Q01DX005 (ip), vehicle: Klucel (hydroxypropylcellulose) (HPC) 98 % of control | dose: 240.0 mg/kg/injection, schedule: Q01DX005 (ip), vehicle: Klucel (hydroxypropylcellulose) (HPC) 98 % of control

O=C(Nc1nc2ccccc2s1)Nc1ccc([N+](=O)[O-])cc1Cl
inactive: [8] 98 % of control | [9] 94 % of control | [10] 90 % of control

O=C1OC2=C(CCc3nc(-c4ccccc4)sc32)C(N(c2ccccc2)c2ccccc2)C1(Cl)Cl (stereo not drawn)
inactive: [8] 96 % of control | [9] 90 % of control | [10] 86 % of control

COc1cc2c(cc1OC)C(c1ccccc1[N+](=O)[O-])=NCC2
inactive: [8] 99 % of control | [9] 94 % of control | [10] 92 % of control

O=C(CNC(=O)Nc1ccc(Cl)c(Cl)c1)N/N=C/c1ccc2c(c1)OCO2
inactive: [11] 91 % of control | [12] 90 % of control | [13] 89 % of control

CC12CCC(Cl)CC1=CCC1C2CCC2(C)C1CCCN2CCCl (stereo not drawn)
inactive: dose: 6.25 mg/kg/injection, schedule: Q01DX001 (ip), vehicle: saline 99 % of control | dose: 12.5 mg/kg/injection, schedule: Q01DX001 (ip), vehicle: saline 98 % of control | dose: 25.0 mg/kg/injection, schedule: Q01DX001 (ip), vehicle: saline with Tween-80 109 % of control | dose: 25.0 mg/kg/injection, schedule: Q01DX001 (ip), vehicle: saline 98 % of control and 104 % of control

N#CC1C(=O)NC(=O)C(C#N)C12CCCCC2 (stereo not drawn)
inactive: dose: 50.0 mg/kg/injection, schedule: Q04DX003 (ip), vehicle: saline with Tween-80 105 % of control | dose: 100.0 mg/kg/injection, schedule: Q04DX003 (ip), vehicle: saline with Tween-80 100 % of control | dose: 200.0 mg/kg/injection, schedule: Q04DX003 (ip), vehicle: saline with Tween-80 105 % of control

COc1cc(OC)c2c3c1CCC(O)=C3C(=O)OC2
inactive: dose: 4.38 mg/kg/injection, schedule: Q01DX005 (ip), vehicle: Klucel (hydroxypropylcellulose) (HPC) 94 % of control | dose: 8.75 mg/kg/injection, schedule: Q01DX005 (ip), vehicle: Klucel (hydroxypropylcellulose) (HPC) 94 % of control | dose: 17.5 mg/kg/injection, schedule: Q01DX005 (ip), vehicle: Klucel (hydroxypropylcellulose) (HPC) 94 % of control

Oc1ccc(/C=C/c2cc(O)cc(O)c2)cc1
inactive: dose: 18.5 mg/kg/injection, schedule: Q01DX009 (ip), vehicle: Klucel (hydroxypropylcellulose) (HPC) 101 % of control | dose: 37.0 mg/kg/injection, schedule: Q01DX009 (ip), vehicle: Klucel (hydroxypropylcellulose) (HPC) 100 % of control | dose: 74.0 mg/kg/injection, schedule: Q01DX009 (ip), vehicle: Klucel (hydroxypropylcellulose) (HPC) 93 % of control

NC1=CC(=O)c2nc(-c3ccccc3N)ccc2C1=O
inactive: dose: 100.0 mg/kg/injection, schedule: Q04DX003 (ip), vehicle: Klucel (hydroxypropylcellulose) (HPC) 109 % of control | dose: 200.0 mg/kg/injection, schedule: Q04DX003 (ip), vehicle: Klucel (hydroxypropylcellulose) (HPC) 105 % of control

[NH-]C(C[S-])C(=O)O.[NH-]C(C[S-])C(=O)O.[O]=[Mo]1[O][Mo](=[O])[O]1 (stereo not drawn)
inactive: [2] 99 % of control | [3] 90 % of control | [4] 104 % of control

Cc1ccc2c3c1CCCN3CCC2
inactive: dose: 50.0 mg/kg/injection, schedule: Q04DX003 (ip), vehicle: saline 112 % of control | [5] 112 % of control

COc1cc(C(=O)NN=C2c3ccccc3-c3ccccc32)cc(OC)c1OC
inactive: [11] 93 % of control | [12] 88 % of control | [13] 87 % of control

Cc1cc(-c2ccc(N3C(=O)CC4(CCCC4)C3=O)c(C)c2)ccc1N1C(=O)CC2(CCCC2)C1=O
inactive: [1] 97 % of control | [14] 96 % of control | [15] 96 % of control

CCN(CC)CCC1CN(C(C)C)CC1(c1ccccc1)c1ccccc1 (stereo not drawn)
inactive: [2] 101 % of control | [3] 109 % of control | [4] 116 % of control

COc1ccc(C(c2cc(C(C)(C)C)cc(C(C)(C)C)c2O)N2CCOCC2)cc1 (stereo not drawn)
inactive: dose: 50.0 mg/kg/injection, schedule: Q01DX005 (ip), vehicle: distilled water + alcohol 99 % of control | dose: 100.0 mg/kg/injection, schedule: Q01DX005 (ip), vehicle: distilled water + alcohol 103 % of control | dose: 200.0 mg/kg/injection, schedule: Q01DX005 (ip), vehicle: distilled water + alcohol 99 % of control

CCC1(c2ccccc2)C(=O)N(CCCl)C(=O)N(CCCl)C1=O
inactive: [1] 92 % of control | [14] 92 % of control | [15] 92 % of control

Cn1cnc2cc(Cl)c([N+](=O)[O-])cc2c1=O
inactive: dose: 100.0 mg/kg/injection, schedule: Q04DX002 (ip), vehicle: Klucel (hydroxypropylcellulose) (HPC) 102 % of control | dose: 200.0 mg/kg/injection, schedule: Q04DX002 (ip), vehicle: Klucel (hydroxypropylcellulose) (HPC) 110 % of control | dose: 400.0 mg/kg/injection, schedule: Q04DX002 (ip), vehicle: Klucel (hydroxypropylcellulose) (HPC) 102 % of control

CSCCC(NP(=S)(c1ccccc1)c1ccccc1)C(=O)O (stereo not drawn)
inactive: [1] 104 % of control and 107 % of control | [14] 107 % of control | [15] 101 % of control and 94 % of control

CCOC(=O)C/C(=N\Nc1ccc([N+](=O)[O-])cc1[N+](=O)[O-])c1ccccc1
inactive: dose: 100.0 mg/kg/injection, schedule: Q01DX001 (ip), vehicle: saline with Tween-80 100 % of control | dose: 200.0 mg/kg/injection, schedule: Q01DX001 (ip), vehicle: saline with Tween-80 100 % of control | dose: 400.0 mg/kg/injection, schedule: Q01DX001 (ip), vehicle: saline with Tween-80 100 % of control

Cn1c(=O)c2c(nc(Cl)n2Cc2ccc([N+](=O)[O-])cc2)n(C)c1=O
inactive: [5] 95 % of control | [6] 92 % of control | [7] 90 % of control
